The results in this text go back to patent publication US7037665B1, “Compositions comprising SNORF36 receptor compounds” (H. Lundbeck A/S, priority 1999, dated 2006).

“Also recorded” adds a separate entry of the source.

What is called EC50 is the midpoint of the concentration-response curve.

The target of test [1] is T1, SNORF36a (Homo sapiens, UniProt Q9UHM6).
T1 sequence (Q9UHM6 1-478): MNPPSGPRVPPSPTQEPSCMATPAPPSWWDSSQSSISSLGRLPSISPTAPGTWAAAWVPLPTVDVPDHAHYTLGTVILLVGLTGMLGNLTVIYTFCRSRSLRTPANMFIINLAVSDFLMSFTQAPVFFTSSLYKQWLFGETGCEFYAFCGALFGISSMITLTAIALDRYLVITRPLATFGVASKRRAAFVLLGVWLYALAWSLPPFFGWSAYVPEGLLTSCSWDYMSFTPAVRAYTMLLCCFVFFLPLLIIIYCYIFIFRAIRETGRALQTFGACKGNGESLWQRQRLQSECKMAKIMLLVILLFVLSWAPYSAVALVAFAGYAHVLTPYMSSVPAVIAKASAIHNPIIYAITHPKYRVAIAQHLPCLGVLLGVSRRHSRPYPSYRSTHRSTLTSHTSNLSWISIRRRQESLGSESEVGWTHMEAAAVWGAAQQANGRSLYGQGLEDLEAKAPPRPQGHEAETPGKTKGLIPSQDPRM
In words: Intracellular Ca2+ mobilization (FLIPR) in human SNORF36a-transfected Cos-7 cells. It counts as cell-based. The conditions noted are these: for EC50: photobleached SNORF36a-transfected Cos-7 cells, FLIPR, n=3. As for the experimental part: The intracellular free calcium (Ca^2+) concentration may be measured by the Fluorescence Imager Plate Reader (FLIPR™).
Cells transfected with appropriate DNA as described earlier were plated into clear, flat-bottom, black-wall 96-well plates (Costar) at a density of 80,000-150,000 cells per well and allowed to incubate for 24 hr at 5% CO2, 37° C. Whenever necessary, the cells were placed in a waterbath maintained at 37° C. and were exposed to a lamp light (50W) placed at a distance of approximately 30 cm, 90 to 120 min before the imaging. The growth medium was aspirated and 100 μl of loading medium containing fluo-3 dye was added to each well 60 min before the imaging. The loading medium contained: Hank's BSS (without phenol red) (Gibco), 20 mM HEPES (Sigma), 0.1 or 1% BSA (Sigma), dye/pluronic acid mixture (e.g. 1 mM Flou-3, AM (Molecular Probes) and 10% pluronic acid (Molecular Probes) mixed immediately before use), and 2.5 mM probenecid (Sigma) (prepared fresh). The cells were allowed to incubate for about 1 hour at 5% CO2, 37° C.
Before or during the incubation of cells with the dye-loading medium, the test compound plate was prepared. Since retinoids are chemically unstable and can undergo rapid photoisomerization (Hu et al., 1994), care was taken to weigh, dissolve and prepare appropriate concentrations of the test compound under photographic darkroom lights. The test compounds were diluted in wash buffer (Hank's BSS (without phenol red), 20 mM HEPES, 2.5 mM probenecid) to a 4× final concentration and aliquoted into a clear v-bottom plate (Nunc). The test compounds were protected from light till their addition to cells. Following the incubation with the dye-loading medium, the cells were washed to remove the excess dye. A Denley plate washer was used to gently wash the cells 4 times and leave a 100 μl final volume of wash buffer in each well. The cell plate was placed in the center tray and the test compound plate was placed in the right tray of the FLIPR. The FLIPR software was setup for the experiment, the experiment was run and the data were collected. For the agonist experiment, the sampling rate in the FLIPR was every 1 sec for the first minute and every 2 sec for the next two minutes. In this paradigm, the test compound was added after recording base line for the first 10 sec. For the antagonist experiment, the sampling rate in the FLIPR was every 1 sec for the first minute, every 6 sec for the next 5 minutes, every 1 sec for the next one minute followed by every 2 sec next two minutes. To evaluate the antagonist activity, the test compound was added to the cells 10 sec after commencing the recording and the agonist was added at 310 sec of the recording. Baseline subtraction and negative control corrections were performed on the traces. The collected data were then analyzed using the Excel spreadsheet program.

The target in test [2] is T1, SNORF36a. The experiment in a line: Light-elicited currents in voltage-clamped Xenopus oocytes expressing SNORF36a. Also noted: expressed in transfected cells; host or cells: Xenopus laevis oocytes injected with synthetic mRNA transcribed from plasmid BO109. The following applies: pre-incubated in the dark 24-48 h at 100 nM in ND96. It is filed as cell-based. As for the experimental part: (§1) In the present invention, oocytes were harvested from Xenopus laevis and injected with mRNA transcripts as previously described (Quick and Lester, 1994; Smith et al., 1997). SNORF36a RNA transcripts were synthesized using the T7 polymerase (“Message Machine”, Ambion) from the plasmid BO109 linearized with NotI. Oocytes were injected with 5-25 ng synthetic RNA and incubated for 3-8 days at 17° C. Dual electrode voltage clamp (Axon Instruments Inc.) was performed using 3 M KCl-filled glass microelectrodes having resistances of 1-2 MOhm. Unless otherwise specified, oocytes were voltage clamped at a holding potential of −80 mV. During recordings, oocytes were bathed in continuously flowing (1-3 ml/min) medium containing 96 mM NaCl, 2 mM KCl, 1.8 mM CaCl2, 1 mM MgCl2, 5 mM HEPES, pH 7.5 (ND96), and the appropriate ligand.
Experiments were carried out under minimal light conditions which required compound weighing, final dilutions and oocyte recordings to be performed under photographic darkroom lights (“Brightlab Junior” safelight). In some cases, the ligands were briefly exposed to room light (5-10 min.) during the weighing procedure. For eliciting physiological responses from oocytes, the light stimulus was a 60 W tungsten lamp set at a distance of 30 cm from the oocyte. Drugs were applied either by superfusion, switching from a series of gravity fed perfusion lines, or by local perfusion from a 10 μl glass capillary tube fixed at a distance of 0.5 mm from the oocyte. Experiments were carried out at room temperature. All values are expressed as mean ± standard error of the mean.

Test [3] has as its system Control oocytes, not injected with SNORF36a mRNA. The experiment in a line: Light-elicited currents in control Xenopus oocytes not injected with SNORF36a mRNA. It counts as cell-based, Xenopus laevis. The following applies: control uninjected oocytes pre-incubated with ligand (100 nM, 24 h), n=10 oocytes. As for the experimental part: as §1
Experiments were carried out under minimal light conditions which required compound weighing, final dilutions and oocyte recordings to be performed under photographic darkroom lights (“Brightlab Junior” safelight). In some cases, the ligands were briefly exposed to room light (5-10 min.) during the weighing procedure. For eliciting physiological responses from oocytes, the light stimulus was a 60 W tungsten lamp set at a distance of 30 cm from the oocyte. […] All values are expressed as mean ± standard error of the mean.

Test [4] concerns the target T1, SNORF36a. The experiment in a line: Inositol phosphate assay (phosphoinositide hydrolysis) in human SNORF36a-transfected Cos-7 cells. It is filed as cell-based. The protocol:
(§2) Human SNORF36a receptor-mediated activation of the inositol phosphate (IP) second messenger pathways was assessed by radiometric measurement of IP products.
(§3) Cells were plated at a density of 70,000 cells per well and allowed to incubate for 24 hours. The cells were then labeled with 0.5 μCi [^3H]myo-inositol overnight at 37° C., 5% CO2. Immediately before the assay, the medium was removed and replaced with 180 μL of Phosphate-Buffered Saline (PBS) containing 10 mM LiCl. The plates were then incubated for 20 min at 37° C., 5% CO2. Following the incubation, the cells were challenged with agonist (20 μl/well; 10× concentration) for 30 min at 37° C. and were simultaneously either exposed or not to a lamp light (50W) placed at approximately 30 cm distance from the cells. The challenge was terminated by the addition of 100 μL of 5% v/v trichloroacetic acid, followed by incubation at 4° C. for greater than 30 minutes. Total IPs were isolated from the lysate by ion exchange chromatography. Briefly, the lysed contents of the wells were transferred to a Multiscreen HV filter plate (Millipore) containing Dowex AGI-X8 (200-400 mesh, formate form). The filter plates were prepared adding 100 μL of Dowex AG1-X8 suspension (50% v/v, water: resin) to each well. […] 200 μL of scintillation cocktail was added to each well, and the radioactivity was determined by liquid scintillation counting.

Test [5] concerns vector-transfected Cos-7 cells. In words: Inositol phosphate assay in empty vector-transfected Cos-7 cells. It counts as cell-based. The following applies: vector-transfected Cos-7 cells exposed to lamp light. As for the experimental part:
as §2, §3

The mark [6] stands for this setting: antagonist at 10 μM, hSNORF36a-transfected Cos-7 cells, n=2.

Consider `CC1=C(/C=C/C(C)=C\C=C\C(C)=C\C=O)C(C)(C)CCC1` [9-cis-retinal], for which, in test [1], it took 152 nM to reach a half-maximal effect (EC50).
With `CC1=C(/C=C/C(C)=C/C=C/C(C)=C/C=O)C(C)(C)CCC1` [13-cis-retinal], in test [2], the “response to light stimulus after pre-incubation” value (“response to light stimulus” below) was “rapidly desensitizing Cl^− currents”. Moreover, the EC50 in test [1] came out at 477 nM. In addition, in test [3], the response to light result is “did not respond to light”.
As for `CC1=C(/C=C/C(C)=C/C=C/C(C)=C/C(=O)O)C(C)(C)CCC1` [ATRA, all-trans-retinoic acid], the “response to light stimulus” value in test [2] is “rapidly desensitizing Cl^− currents”.
On to `CC1=C(/C=C/C(C)=C/C=C/C(C)=C/C=O)C(C)(C)CCC1` [all-trans-retinal], for which the 3H-IP accumulation result in test [4] (SNORF36a-transfected Cos-7 cells exposed to lamp light, n=2) is “Concentration-dependent increase”; in test [5], “not in vector-transfected cells”. In addition, in test [4] (SNORF36a-transfected Cos-7 cells not exposed to light, n=1), the 3H-IP levels entry was “did not change”. Further, the “response to light stimulus” value in test [2] is “rapidly desensitizing Cl^− currents”. In test [1], this molecule displayed an EC50 of 263 nM. In test [3], the response to light result was “fails to respond to light; also recorded: did not respond to light”.
`CC(=O)/C=C/C1=C(C)CCCC1(C)C` [β-ionone]: the “nature of the antagonism” value in test [1] (10 μM against all-trans-retinal and 9-cis-retinal, hSNORF36a-transfected Cos-7 cells) is “insurmountable”. Besides, in test [1] (setting [6]), the “antagonism of 9-cis-retinal-induced Ca2+ mobilization” value was “significantly antagonized” and the “antagonism of all-trans-retinal-induced Ca2+ mobilization” value is given as “significantly antagonized”.
